How the values were obtained:
PANC-1/IDX-1 cells [1] = test: RT-PCR of islet β-cell specific transcripts, PANC-1/IDX-1 cells; format: cell-based, human
Method: (§1) PANC-1 cells were transfected with a pcDNA3 construct (Invitrogen; Carlsbad, Calif.) harboring the wild-type full-length IDX-1 cDNA using LipoTAXI (Catalog N. 204110; Mammalian Transfection Kit, Stratagene; La Jolla, Calif.). Control cells were transfected with the vector alone. The selection of positive (i.e. transfected) cells was carried out by culturing the cells in the presence of 400 μg/ml of G418 sulfate (GN-04, Omega; Tarzana, Calif.).
(§2) After the treatment of ARIP and PANC-1 cells with GLP-1, Exendin-9, or vehicle, for the described length of time and the various doses, the culture medium was removed and the cells were washed (twice) with serum-free medium. Total RNA was isolated using the TRiazol-method (Gibco-BRL), and treated with DNase (Amplification Grade, GibcoBRL) in 20 mmol/l Tris-HCL (pH 8.4), 2 mmol/l MgCl2, and 50 mmol/l KCl to remove any traces of contaminating genomic DNA. RNA (2.5 μg) was then subjected to reverse transcription (RT reagents; Promega; Madison, Wis.). RT-PCR was undertaken in a volume of 50 μl of buffer containing 50 mmol/l KCl, 10 mmol/l Tris-HCl, 3.5 mmol/l MgCl2, 200 μmol/l each dNTPs, and 0.4 μmol/l each of sense and antisense primers to rat or human insulin (depending on the specific cell from which the RNA was extracted). Amplification was performed for 30 cycles at the denaturing temperature of 94° C. for 1 min, annealing temperature of 60° C. for 45 sec, and an extension temperature of 72° C. for 1 min. […] These included more irregular and variable cell shapes, with a cytoplasm less homogenous and “rougher” in appearance than control culture.
(§3) Treatment with GLP-1 induces the differentiation of ductal epithelial cells into insulin-producing cells. FIG. 2 illustrates a series of cell cultures grown with or without GLP-1 (10 nM) for 72 h. […] Preabsorption of the antibody with an excess of human recombinant insulin prevented the staining of insulin-positive GLP-1 treated cells (data not shown). While treatment with GLP-1 turned the majority of ARIP cells into […] For β-actin, the annealing temperature was raised to 64° C. for 1 min and gene-specific primers were used. For GLP-1-receptor (GLP-R) the annealing temperature used was 55° C. All other experimental conditions to amplify GLUT2, glucokinase, and GLP-R mRNAs were identical to those described for the amplification of insulin mRNA. RT and PCR conditions for human transcripts were identical to those described for rat mRNAs.
(§4) Southern blotting with species-specific full length cDNA probes for insulin, GLUT-2, glucokinase, GLP-1 receptor and β-actin was performed as previously described. Y. Wang, R. Perfetti, N. H. Greig, H. W. Holloway, K. A. DeOre, C. Montrose-Rafizadeh, D. Elahi, J. M. Egan, “Glucagon-like peptide-1 can reverse the age-related decline in glucose tolerance in rats.” J Clin Invest 99:2883-2889, 1997.

ARIP cells = test: RT-PCR of islet β-cell specific transcripts, ARIP cells; format: cell-based, rat
Method: as §2, §3, §4

PANC-1/IDX-1 cells [2] = test: Immunofluorescence for IDX-1, PANC-1/IDX-1 cells; format: cell-based, human
Method: as §1
(§5) Cells were cultured on monocoated chamber slides (Nalge Nunc International; Naperville, Ill.) in the presence of GLP-1 (10 nM), or vehicle, for 72 h.
For the detection of IDX-1, slightly different conditions were used. Briefly: the concentration of paraformaldehyde was decreased to 2%, and the concentration of Triton to permeabilize the cells was raised to 0.2% Triton-X-100. Cells were then washed with 0.01 M PBS three times for 3-5 min, and non-specific binding was inhibited by using 5% chick serum in 0.01 M PBS, at room temperature for 60 min in a humid chamber. […] The percentage of IDX-1 containing cells was evaluated by counting the number of IDX-1 “positive” cells divided by the total number of cells identified by nuclear staining.

PANC-1 cells = test: Immunocytochemistry for insulin, parental PANC-1 cells; format: cell-based, human; conditions: presence or absence of GLP-1
Method: as §5
For the detection of insulin, cells were washed and fixed with 3% paraformaldehyde for 4 h, at room temperature in PBS, solubilized with 0.1% (vol/vol) Triton X-100 in PBS for 5 min. Cells were then incubated sequentially with an anti-insulin antibody and a secondary antibody, as described by the manufacturer (Biomeda Corp.; Foster City, Calif.). The cells were examined using a Ziess Axiophoto microscope (New York, N.Y.).

## glucagon-like peptide-1 [GLP-1]
PANC-1/IDX-1 cells [1]; GLP-1 10 nM
  time of GLUT2 mRNA expression: 24 h
  time of earliest detection of insulin mRNA: 48 h
  time of glucokinase mRNA expression: 72 h
PANC-1/IDX-1 cells [1]; data not shown
  GLP-1 dose at peak of insulin mRNA levels: 10 nM
  GLP-1 dose at plateau of insulin mRNA levels: 20 nM
  lowest dose of GLP-1 required to detect insulin mRNA: 1 nM
ARIP cells; GLP-1 10 nM
  time of first detection of GLUT2 mRNA: 24 h
  time of first detection of glucokinase mRNA: 72 h
  time of first detection of insulin mRNA: 48 h
ARIP cells; data not shown
  lowest concentration of GLP-1 required for the initial detection of insulin mRNA: 1 nM
PANC-1/IDX-1 cells [2]; GLP-1 10 nM for 72 h
  effect on expression level of IDX-1: further increase
PANC-1/IDX-1 cells [2]; GLP-1 or vehicle, 400 cells counted
  cells expressing IDX-1: ~100%
PANC-1 cells
  insulin immunostaining: No positive insulin immunostaining
